From ChEMBL document CHEMBL1147004, “Alkynyl pyrimidines as dual EGFR/ErbB2 kinase inhibitors” (Bioorg Med Chem Lett, 2006)

Assays:
[1] = molecular target: Epidermal growth factor receptor (Homo sapiens, UniProt P00533)
[2] = molecular target: Receptor tyrosine-protein kinase erbB-2 (Homo sapiens, UniProt P04626); assay: Inhibition of ErbB2
HFF = assay: Antiproliferative activity against human HFF cell line
HN5 = assay: Antiproliferative activity against human HN5 cell line
BT-474 = assay: Antiproliferative activity against human BT474 cell line
[3] = Permeability in PAMPA; type: ADME; conditions: read-out: permeability

Chain of Receptor tyrosine-protein kinase erbB-2 (P04626 whole entry): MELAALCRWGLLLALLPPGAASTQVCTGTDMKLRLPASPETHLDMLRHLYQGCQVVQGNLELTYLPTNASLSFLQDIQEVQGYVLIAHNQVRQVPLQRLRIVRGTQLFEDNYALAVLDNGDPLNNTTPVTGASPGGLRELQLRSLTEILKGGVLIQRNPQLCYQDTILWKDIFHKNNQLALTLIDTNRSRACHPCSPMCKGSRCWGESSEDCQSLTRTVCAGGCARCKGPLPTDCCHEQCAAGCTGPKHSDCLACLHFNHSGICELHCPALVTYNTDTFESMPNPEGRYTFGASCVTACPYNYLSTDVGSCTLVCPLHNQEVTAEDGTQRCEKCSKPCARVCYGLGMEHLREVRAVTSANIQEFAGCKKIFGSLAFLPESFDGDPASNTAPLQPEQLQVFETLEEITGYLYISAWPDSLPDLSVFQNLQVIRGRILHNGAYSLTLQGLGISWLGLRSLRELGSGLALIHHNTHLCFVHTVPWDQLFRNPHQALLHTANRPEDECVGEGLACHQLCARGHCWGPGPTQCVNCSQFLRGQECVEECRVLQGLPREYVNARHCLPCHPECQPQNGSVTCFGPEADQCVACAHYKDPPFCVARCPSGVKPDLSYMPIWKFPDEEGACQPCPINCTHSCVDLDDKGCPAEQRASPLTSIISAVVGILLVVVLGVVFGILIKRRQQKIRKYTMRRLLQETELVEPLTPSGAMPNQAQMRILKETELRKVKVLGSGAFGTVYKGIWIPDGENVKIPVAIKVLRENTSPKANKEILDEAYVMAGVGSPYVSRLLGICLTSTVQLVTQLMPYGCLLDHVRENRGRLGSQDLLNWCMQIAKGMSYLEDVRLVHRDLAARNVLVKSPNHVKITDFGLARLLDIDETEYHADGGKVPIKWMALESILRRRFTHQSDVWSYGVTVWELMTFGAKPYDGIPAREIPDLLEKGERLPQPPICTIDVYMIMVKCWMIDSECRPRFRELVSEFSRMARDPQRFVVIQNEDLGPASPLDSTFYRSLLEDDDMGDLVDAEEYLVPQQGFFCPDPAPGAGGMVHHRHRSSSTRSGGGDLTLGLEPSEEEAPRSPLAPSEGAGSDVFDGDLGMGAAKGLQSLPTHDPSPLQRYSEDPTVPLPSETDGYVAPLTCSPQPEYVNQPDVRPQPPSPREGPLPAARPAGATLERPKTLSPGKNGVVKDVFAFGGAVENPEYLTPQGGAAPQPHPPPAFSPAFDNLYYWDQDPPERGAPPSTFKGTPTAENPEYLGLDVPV
Chain of Epidermal growth factor receptor (P00533 whole entry): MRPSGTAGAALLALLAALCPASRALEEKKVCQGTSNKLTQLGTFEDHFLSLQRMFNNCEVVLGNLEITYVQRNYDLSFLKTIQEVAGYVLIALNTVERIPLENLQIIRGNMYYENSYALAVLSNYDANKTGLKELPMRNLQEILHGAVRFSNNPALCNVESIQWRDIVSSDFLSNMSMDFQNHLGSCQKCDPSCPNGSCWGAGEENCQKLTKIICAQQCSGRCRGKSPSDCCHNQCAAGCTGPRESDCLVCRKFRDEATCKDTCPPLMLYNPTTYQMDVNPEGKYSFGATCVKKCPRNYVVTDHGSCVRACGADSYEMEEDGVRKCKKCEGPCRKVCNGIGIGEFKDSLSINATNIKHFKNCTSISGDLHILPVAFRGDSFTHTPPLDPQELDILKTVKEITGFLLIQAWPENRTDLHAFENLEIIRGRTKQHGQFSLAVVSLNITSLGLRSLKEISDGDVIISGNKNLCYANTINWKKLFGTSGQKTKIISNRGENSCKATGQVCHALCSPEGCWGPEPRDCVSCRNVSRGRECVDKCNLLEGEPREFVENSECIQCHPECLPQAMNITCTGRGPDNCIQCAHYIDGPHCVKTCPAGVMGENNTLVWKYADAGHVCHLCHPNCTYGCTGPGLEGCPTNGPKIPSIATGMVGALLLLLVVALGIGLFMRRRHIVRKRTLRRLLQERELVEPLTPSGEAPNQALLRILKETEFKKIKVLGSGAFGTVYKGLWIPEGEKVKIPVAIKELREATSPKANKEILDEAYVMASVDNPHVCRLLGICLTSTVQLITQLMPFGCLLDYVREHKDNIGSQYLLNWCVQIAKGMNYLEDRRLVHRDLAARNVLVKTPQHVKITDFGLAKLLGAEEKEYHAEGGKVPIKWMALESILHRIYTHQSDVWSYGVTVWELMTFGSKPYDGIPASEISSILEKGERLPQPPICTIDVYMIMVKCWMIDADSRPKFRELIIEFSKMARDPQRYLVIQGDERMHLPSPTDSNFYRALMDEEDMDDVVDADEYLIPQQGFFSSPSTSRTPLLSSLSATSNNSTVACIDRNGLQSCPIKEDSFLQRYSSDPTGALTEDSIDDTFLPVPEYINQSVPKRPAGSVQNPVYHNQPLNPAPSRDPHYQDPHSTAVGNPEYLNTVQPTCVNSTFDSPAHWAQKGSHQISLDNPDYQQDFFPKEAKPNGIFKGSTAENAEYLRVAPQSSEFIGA

Row | SMILES | IC50 [1] [nM] | IC50 [2] [nM] | IC50 (BT-474) [µM] | Papp [3] [×10⁻⁶ cm/s] | IC50 (HFF) [µM] | IC50 (HN5) [nM]
1 | OCc1nc(C#Cc2cncnc2Nc2ccc(OCc3cccc(F)c3)c(Cl)c2)cs1 | 76 | 160 | – | – | – | –
2 | COC(=O)CCCC(=O)Nc1cccc(C#Cc2cncnc2Nc2ccc(OCc3cccc(F)c3)c(Cl)c2)c1 | 31 | 29 | 4.24 | – | 22.4 | 3470
3 | Fc1cccc(COc2ccc(Nc3ccncn3)cc2Cl)c1 | 320 | 21000 | – | – | – | –
4 | CS(=O)(=O)CCC(=O)Nc1cccc(C#Cc2cncnc2Nc2ccc(OCc3cccc(F)c3)c(Cl)c2)c1 | 50 | 32 | – | – | – | –
5 | CNC(=O)NCc1cccc(C#Cc2cncnc2Nc2ccc(OCc3cccc(F)c3)c(Cl)c2)n1 | 23 | 69 | – | – | – | –
6 | OCc1ccc(C#Cc2cncnc2Nc2ccc(OCc3cccc(F)c3)c(Cl)c2)o1 | 33 | 47 | 2.04 | – | 15.8 | 930
7 | CC(=O)Nc1cccc(C#Cc2cncnc2Nc2ccc(OCc3cccc(F)c3)c(Cl)c2)n1 [GW794726X] | 91 | 59 | – | – | – | –
8 | C#Cc1cncnc1Nc1ccc(OCc2cccc(F)c2)c(Cl)c1 | 85 | 3800 | – | – | – | –
9 | Nc1nccc(C#Cc2cncnc2Nc2ccc(OCc3cccc(F)c3)c(Cl)c2)n1 [GW799251X] | – | 12 | – | – | – | –
10 | CS(=O)(=O)CCNC(=O)NCc1cccc(C#Cc2cncnc2Nc2ccc(OCc3cccc(F)c3)c(Cl)c2)n1 | 15 | 9 | 0.84 | – | > 30 | 770

The next lines start with results.

Row | IC50 [1] [nM] | IC50 [2] [nM] | IC50 (BT-474) [µM] | Papp [3] [×10⁻⁶ cm/s] | SMILES | IC50 (HFF) [µM] | IC50 (HN5) [nM]
11 | 63 | 91 | – | – | Nc1ccccc1C#Cc1cncnc1Nc1ccc(OCc2cccc(F)c2)c(Cl)c1 | – | –
12 | 77 | 60 | – | – | Fc1cccc(COc2ccc(Nc3ncncc3C#Cc3ncccn3)cc2Cl)c1 | – | –
13 | 110 | 45 | – | – | CS(=O)(=O)Nc1cccc(C#Cc2cncnc2Nc2ccc(OCc3cccc(F)c3)c(Cl)c2)c1 | – | –
14 | 79 | 780 | – | – | Fc1cccc(COc2ccc(Nc3ncncc3C#Cc3ccccc3)cc2Cl)c1 [GW651576X] | – | –
15 | 42 | 66 | – | – | Fc1cccc(COc2ccc(Nc3ncncc3C#Cc3cc[nH]n3)cc2Cl)c1 | – | –
16 | 42 | 44 | – | – | Nc1cccc(C#Cc2cncnc2Nc2ccc(OCc3cccc(F)c3)c(Cl)c2)c1 | – | –
17 | – | 13 | 5.79 | – | OCc1cccc(C#Cc2cncnc2Nc2ccc(OCc3cccc(F)c3)c(Cl)c2)n1 | > 30 | –
18 | 25100 | 1820 | – | – | CC(=O)Nc1ccc(C#Cc2cncnc2Nc2ccc(OCc3cccc(F)c3)c(Cl)c2)cc1 | – | –
19 | 60 | 52 | – | – | CC(=O)NCc1cccc(C#Cc2cncnc2Nc2ccc(OCc3cccc(F)c3)c(Cl)c2)c1 [GW807930X] | – | –
20 | 79 | 32 | – | – | CNC(=O)c1cccc(C#Cc2cncnc2Nc2ccc(OCc3cccc(F)c3)c(Cl)c2)c1 [GW772405X] | – | –
21 | 30 | 36 | – | – | Nc1ccc(C#Cc2cncnc2Nc2ccc(OCc3cccc(F)c3)c(Cl)c2)cc1 [GW659893X] | – | –
22 | 17 | 55 | – | – | Fc1cccc(COc2ccc(Nc3ncncc3C#Cc3ccccn3)cc2Cl)c1 | – | –
23 | 74 | 140 | – | – | Fc1cccc(COc2ccc(Nc3ncncc3C#Cc3cccnc3)cc2Cl)c1 | – | –
24 | 12 | 13 | 21.6 | < 0.3 | CC(=O)Nc1cccc(C#Cc2cncnc2Nc2ccc(OCc3cccc(F)c3)c(Cl)c2)c1 [GW703087X] | > 30 | 13700
25 | 21 | 38 | – | – | NCc1cccc(C#Cc2cncnc2Nc2ccc(OCc3cccc(F)c3)c(Cl)c2)n1 | – | –
